Reference: patent US20090221642A1, “MUSCARINIC RECEPTOR AGONISTS, COMPOSITIONS, METHODS OF TREATMENT THEREOF, AND PROCESSES FOR PREPARATION THEREOF-176” (AstraZeneca AB, priority 2008, published 2009)

biological target: T1, cloned human M2 receptor (human Muscarinic receptor subtype 2) (Homo sapiens, UniProt P08172); test: hM2 receptor GTPγS binding; format: biochemical; settings: CHO cell membranes expressing hM2; [35S]GTPγS binding; read-out: hM2 EC50
T1 construct: purchased Perkin-Elmer RBHM2M; host or cells: Chinese hamster ovary cells (CHO) membranes
T1 sequence (P08172 1-466): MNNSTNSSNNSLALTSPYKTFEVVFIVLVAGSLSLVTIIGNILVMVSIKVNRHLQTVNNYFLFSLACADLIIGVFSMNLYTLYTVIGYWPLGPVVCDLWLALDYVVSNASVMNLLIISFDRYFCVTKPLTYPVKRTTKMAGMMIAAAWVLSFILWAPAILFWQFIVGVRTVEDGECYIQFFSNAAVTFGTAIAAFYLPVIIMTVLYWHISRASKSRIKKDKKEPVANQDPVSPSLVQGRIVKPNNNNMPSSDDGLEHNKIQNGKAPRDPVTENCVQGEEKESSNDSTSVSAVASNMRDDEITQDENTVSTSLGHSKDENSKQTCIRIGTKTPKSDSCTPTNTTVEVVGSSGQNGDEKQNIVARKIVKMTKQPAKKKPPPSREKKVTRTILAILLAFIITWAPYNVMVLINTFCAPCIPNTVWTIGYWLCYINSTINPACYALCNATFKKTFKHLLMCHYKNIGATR
Method: hM2 Receptor GTPγS Binding
Membranes produced from Chinese hamster ovary cells (CHO) expressing the cloned human M2 receptor (human Muscarinic receptor subtype 2, gene bank access NM_000739), are obtained from Perkin-Elmer (RBHM2M). The membranes are thawed at 37° C., passed 3 times through a 23-gauge blunt-end needle, diluted in the GTPγS binding buffer (50 mM Hepes, 20 mM NaOH, 100 mM NaCl, 1 mM EDTA, 5 mM MgCl2, pH 7.4, 100 μM DTT). The EC50, IC50 and Emax of the compounds of the invention are evaluated from 10-point dose-response curves (three fold concentration range) done in 60 μl in 384-well non-specific binding surface plate (Corning). Ten microliters from the dose-response curves plate (5× concentration) are transferred to another 384 well plate containing 25 μl of the following: 5 μg of hM2 membranes, 500 μg of Flashblue beads (Perkin-Elmer) and GDP 25 μM. An additional 15 μl containing 3.3× (60,000 dpm) of GTPγ^35S (0.4 nM final) are added to the wells resulting in a total well volume of 50 μl. Basal and maximal stimulated [^35S]GTPγS binding are determined in absence and presence of 30 μM final of acetylcholine agonist. The membranes/beads mix are pre-incubated for 15 minutes at room temperature with 25 μM GDP prior to distribution in plates (12.5 μM final). The reversal of acetylcholine-induced stimulation (2 μM final) of [^35S]GTPγS binding is used to assay the antagonist properties (IC50) of the compounds. The plates are incubated for 60 minutes at room temperature then centrifuged at 400 rpm for 5 minutes. The radioactivity (cpm) is counted in a Trilux (Perkin-Elmer).
Values of EC50, IC50 and Emax are obtained using sigmoidal fits of a non-linear curve-fitting program (XLfit version 4.2.2 Excel add-in version 4.2.2 build 18 math 1Q version 2.1.2 build 18) of percent stimulated [^35S]GTPγS binding vs. log(molar ligand). All pEC50 and plC50 values are reported as arithmetic means ±standard error of mean of ‘n’ independent experiments.

EC50 | Structure (SMILES)
865 nM | COC(=O)N1CCC(C)(N2CCC(n3c(=O)[nH]c4ccccc43)CC2)C1 (racemic) [Example 2, methyl 3-methyl-3-(4-(2-oxo-2,3-dihydro-1H-benzo[d]imidazol-1-yl)piperidin-1-yl)pyrrolidine-1-carboxylate]
1860 nM | CC1(N2CCC(n3c(=O)[nH]c4ccccc43)CC2)CCN(C(=O)OCCF)C1 (racemic) [Example 4, 2-fluoroethyl 3-methyl-3-(4-(2-oxo-2,3-dihydro-1H-benzo[d]imidazol-1-yl)piperidin-1-yl)pyrrolidine-1-carboxylate]
588 nM | CCOC(=O)N1CCC(C)(N2CCC(n3c(=O)[nH]c4cc(F)ccc43)CC2)C1 (single isomer, unassigned) [Example 6, ethyl 3-(4-(5-fluoro-2-oxo-2,3-dihydro-1H-benzo[d]imidazol-1-yl)piperidin-1-yl)-3-methylpyrrolidine-1-carboxylate]
4500 nM | CCOC(=O)N1CCC(C)(N2CCC(n3c(=O)[nH]c4cc(F)ccc43)CC2)C1 (single isomer, unassigned) [Example 7, ethyl 3-(4-(5-fluoro-2-oxo-2,3-dihydro-1H-benzo[d]imidazol-1-yl)piperidin-1-yl)-3-methylpyrrolidine-1-carboxylate]
771 nM | CCOC(=O)N1CCC(C)(N2CCC(n3c(=O)[nH]c4cc(C)ccc43)CC2)C1 (single isomer, unassigned) [Example 12, ethyl 3-methyl-3-(4-(5-methyl-2-oxo-2,3-dihydro-1H-benzo[d]imidazol-1-yl)piperidin-1-yl)pyrrolidine-1-carboxylate]
1500 nM | Cc1ccc2c(c1)[nH]c(=O)n2C1CCN(C2(C)CCN(C(=O)OC(C)C)C2)CC1 (single isomer, unassigned) [Example 14, isopropyl 3-methyl-3-(4-(5-methyl-2-oxo-2,3-dihydro-1H-benzo[d]imidazol-1-yl)piperidin-1-yl)pyrrolidine-1-carboxylate]
2850 nM | Cc1ccc2c(c1)[nH]c(=O)n2C1CCN(C2(C)CCN(C(=O)OC(C)C)C2)CC1 (single isomer, unassigned) [Example 15, isopropyl 3-methyl-3-(4-(5-methyl-2-oxo-2,3-dihydro-1H-benzo[d]imidazol-1-yl)piperidin-1-yl)pyrrolidine-1-carboxylate]
61 nM | CC#CCOC(=O)N1CCC(C)(N2CCC(n3c(=O)[nH]c4ccc(C)cc43)CC2)C1 (single isomer, unassigned) [Example 20, but-2-ynyl 3-methyl-3-(4-(6-methyl-2-oxo-2,3-dihydro-1H-benzo[d]imidazol-1-yl)piperidin-1-yl)pyrrolidine-1-carboxylate]
94 nM | CC#CCOC(=O)N1CCC(C)(N2CCC(n3c(=O)[nH]c4cc(C)ccc43)CC2)C1 (single isomer, unassigned) [Example 21, but-2-ynyl 3-methyl-3-(4-(5-methyl-2-oxo-2,3-dihydro-1H-benzo[d]imidazol-1-yl)piperidin-1-yl)pyrrolidine-1-carboxylate]
126 nM | CC#CCOC(=O)N1CCC(C)(N2CCC(n3c(=O)[nH]c4cc(F)ccc43)CC2)C1 (single isomer, unassigned) [Example 22, but-2-ynyl 3-(4-(5-fluoro-2-oxo-2,3-dihydro-1H-benzo[d]imidazol-1-yl)piperidin-1-yl)-3-methylpyrrolidine-1-carboxylate]
668 nM | COC(=O)N1CCC(C)(N2CCC(n3c(=O)[nH]c4cc(F)ccc43)CC2)C1 (single isomer, unassigned) [Example 23, methyl 3-(4-(5-fluoro-2-oxo-2,3-dihydro-1H-benzo[d]imidazol-1-yl)piperidin-1-yl)-3-methylpyrrolidine-1-carboxylate]
1350 nM | CC1(N2CCC(n3c(=O)[nH]c4cc(F)ccc43)CC2)CCN(C(=O)OCCF)C1 (single isomer, unassigned) [Example 24, 2-fluoroethyl 3-(4-(5-fluoro-2-oxo-2,3-dihydro-1H-benzo[d]imidazol-1-yl)piperidin-1-yl)-3-methylpyrrolidine-1-carboxylate]
146 nM | C#CCOC(=O)N1CCC(C)(N2CCC(n3c(=O)[nH]c4cc(F)ccc43)CC2)C1 (single isomer, unassigned) [Example 25, prop-2-ynyl 3-(4-(5-fluoro-2-oxo-2,3-dihydro-1H-benzo[d]imidazol-1-yl)piperidin-1-yl)-3-methylpyrrolidine-1-carboxylate]
146 nM | Cc1ccc2[nH]c(=O)n(C3CCN(C4(C)CCN(C(=O)OCCF)C4)CC3)c2c1 (single isomer, unassigned) [Example 26, 2-fluoroethyl 3-methyl-3-(4-(6-methyl-2-oxo-2,3-dihydro-1H-benzo[d]imidazol-1-yl)piperidin-1-yl)pyrrolidine-1-carboxylate]
620 nM | Cc1ccc2c(c1)[nH]c(=O)n2C1CCN(C2(C)CCN(C(=O)OCCF)C2)CC1 (single isomer, unassigned) [Example 27, 2-fluoroethyl 3-methyl-3-(4-(5-methyl-2-oxo-2,3-dihydro-1H-benzo[d]imidazol-1-yl)piperidin-1-yl)pyrrolidine-1-carboxylate]
2400 nM | Cc1ccc2[nH]c(=O)n(C3CCN(C4(C)CCN(C(=O)OCCF)C4)CC3)c2c1 (single isomer, unassigned) [Example 28, 2-fluoroethyl 3-methyl-3-(4-(6-methyl-2-oxo-2,3-dihydro-1H-benzo[d]imidazol-1-yl)piperidin-1-yl)pyrrolidine-1-carboxylate]
997 nM | CC1(N2CCC(n3c(=O)[nH]c4ccccc43)CC2)CCN(C(=O)OCCF)C1 (single isomer, unassigned) [Example 31, 2-fluoroethyl 3-methyl-3-(4-(2-oxo-2,3-dihydro-1H-benzo[d]imidazol-1-yl)piperidin-1-yl)pyrrolidine-1-carboxylate]
5840 nM | CC1(N2CCC(n3c(=O)[nH]c4ccccc43)CC2)CCN(C(=O)OCCF)C1 (single isomer, unassigned) [Example 32, 2-fluoroethyl 3-methyl-3-(4-(2-oxo-2,3-dihydro-1H-benzo[d]imidazol-1-yl)piperidin-1-yl)pyrrolidine-1-carboxylate]
104 nM | CC#CCOC(=O)N1CCC(C)(N2CCC(n3c(=O)[nH]c4ccccc43)CC2)C1 (single isomer, unassigned) [Example 33, but-2-ynyl 3-methyl-3-(4-(2-oxo-2,3-dihydro-1H-benzo[d]imidazol-1-yl)piperidin-1-yl)pyrrolidine-1-carboxylate]
897 nM | CC#CCOC(=O)N1CCC(C)(N2CCC(n3c(=O)[nH]c4ccccc43)CC2)C1 (single isomer, unassigned) [Example 34, but-2-ynyl 3-methyl-3-(4-(2-oxo-2,3-dihydro-1H-benzo[d]imidazol-1-yl)piperidin-1-yl)pyrrolidine-1-carboxylate]
1560 nM | C#CCOC(=O)N1CCC(C)(N2CCC(n3c(=O)[nH]c4cc(F)ccc43)CC2)C1 (single isomer, unassigned) [Example 36, prop-2-ynyl 3-(4-(5-fluoro-2-oxo-2,3-dihydro-1H-benzo[d]imidazol-1-yl)piperidin-1-yl)-3-methylpyrrolidine-1-carboxylate]
> 12800 nM | Cc1ccc2[nH]c(=O)n(C3CCN(C4(C)CCN(C(=O)OC(C)C)C4)CC3)c2c1 (single isomer, unassigned) [Example 39, isopropyl 3-methyl-3-(4-(6-methyl-2-oxo-2,3-dihydro-1H-benzo[d]imidazol-1-yl)piperidin-1-yl)pyrrolidine-1-carboxylate]
2810 nM | Cc1ccc2[nH]c(=O)n(C3CCN(C4(C)CCN(C(=O)OC(C)C)C4)CC3)c2c1 (single isomer, unassigned) [Example 40, isopropyl 3-methyl-3-(4-(6-methyl-2-oxo-2,3-dihydro-1H-benzo[d]imidazol-1-yl)piperidin-1-yl)pyrrolidine-1-carboxylate]
